# Source: patent US12409177B2, “FGFR inhibitors for the treatment of cancer” (BridGene Biosciences, Inc., priority 2019, dated 2025)
# Where two headings read alike, the source gives them in different places.
# Tests used:
# [1] = target: FGFR4 (Homo sapiens, UniProt P22455); test: FGFR4 kinase inhibition (IC50); format: biochemical
# [2] = Solubility in 5% DMSO and 95% of (20% HPBC in PBS); format: physicochemical
# Description: The inventive compound 1 improves the FGFR4-selective inhibitory effect.
# [3] = target: FGFR1 (Homo sapiens, UniProt P11362); test: FGFR1 kinase inhibition (IC50); format: biochemical
# Chain of FGFR1 (P11362 22-822): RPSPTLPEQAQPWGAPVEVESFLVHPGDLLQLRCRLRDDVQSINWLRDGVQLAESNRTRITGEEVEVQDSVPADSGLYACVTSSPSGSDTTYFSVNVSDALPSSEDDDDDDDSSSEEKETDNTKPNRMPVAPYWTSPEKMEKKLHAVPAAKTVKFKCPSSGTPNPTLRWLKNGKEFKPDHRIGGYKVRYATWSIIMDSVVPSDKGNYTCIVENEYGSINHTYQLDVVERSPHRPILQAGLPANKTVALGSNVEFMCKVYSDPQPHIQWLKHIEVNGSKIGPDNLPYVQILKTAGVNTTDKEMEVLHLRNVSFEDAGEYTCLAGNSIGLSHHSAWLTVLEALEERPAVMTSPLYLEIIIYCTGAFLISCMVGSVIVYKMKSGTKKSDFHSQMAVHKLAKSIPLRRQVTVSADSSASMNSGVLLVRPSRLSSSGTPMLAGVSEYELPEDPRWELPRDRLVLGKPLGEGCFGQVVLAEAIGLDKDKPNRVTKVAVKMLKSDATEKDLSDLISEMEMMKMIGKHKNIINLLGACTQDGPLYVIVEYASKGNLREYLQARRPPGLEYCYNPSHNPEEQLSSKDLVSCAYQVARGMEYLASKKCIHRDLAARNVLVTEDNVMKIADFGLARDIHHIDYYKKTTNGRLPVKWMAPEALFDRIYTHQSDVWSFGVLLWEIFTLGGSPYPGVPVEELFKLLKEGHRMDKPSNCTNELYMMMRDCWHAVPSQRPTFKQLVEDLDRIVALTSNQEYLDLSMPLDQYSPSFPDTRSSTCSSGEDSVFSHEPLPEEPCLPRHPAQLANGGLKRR
# [4] = MDCK permeability; format: in vitro ADME; conditions: dog
# [5] = Protein binding; format: in vitro ADME
# [6] = system: Hepatocyte; test: Mouse hepatocyte clearance; format: in vitro ADME; conditions: mouse hepatocytes; value ± SE
# [7] = target: FGFR2 (Homo sapiens, UniProt P21802); test: FGFR2 kinase inhibition (IC50); format: biochemical
# Chain of FGFR2 (P21802 22-821): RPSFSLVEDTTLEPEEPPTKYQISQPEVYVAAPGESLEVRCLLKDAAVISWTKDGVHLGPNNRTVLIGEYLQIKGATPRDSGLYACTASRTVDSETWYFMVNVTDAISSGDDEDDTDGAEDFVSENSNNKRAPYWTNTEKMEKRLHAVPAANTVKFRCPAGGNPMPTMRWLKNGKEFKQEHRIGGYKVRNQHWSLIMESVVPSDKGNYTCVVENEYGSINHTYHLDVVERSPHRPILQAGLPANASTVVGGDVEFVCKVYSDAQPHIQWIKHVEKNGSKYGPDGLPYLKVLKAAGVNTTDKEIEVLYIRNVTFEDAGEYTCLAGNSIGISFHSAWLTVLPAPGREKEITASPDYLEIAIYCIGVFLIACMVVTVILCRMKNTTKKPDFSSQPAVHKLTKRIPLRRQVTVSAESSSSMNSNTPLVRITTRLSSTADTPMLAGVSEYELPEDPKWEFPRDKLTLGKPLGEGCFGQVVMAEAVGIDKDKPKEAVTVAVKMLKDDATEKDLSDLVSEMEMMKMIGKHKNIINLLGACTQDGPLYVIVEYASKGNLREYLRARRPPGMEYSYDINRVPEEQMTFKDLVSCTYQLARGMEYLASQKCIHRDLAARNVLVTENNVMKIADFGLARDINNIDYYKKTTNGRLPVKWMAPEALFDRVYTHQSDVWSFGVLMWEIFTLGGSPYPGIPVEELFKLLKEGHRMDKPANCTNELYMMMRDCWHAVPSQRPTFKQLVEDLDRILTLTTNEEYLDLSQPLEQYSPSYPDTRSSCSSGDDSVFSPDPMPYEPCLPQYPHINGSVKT
# [8] = target: FGFR3 (Homo sapiens, UniProt P22607); test: FGFR3 kinase inhibition (IC50); format: biochemical
# Chain of FGFR3 (P22607 23-806): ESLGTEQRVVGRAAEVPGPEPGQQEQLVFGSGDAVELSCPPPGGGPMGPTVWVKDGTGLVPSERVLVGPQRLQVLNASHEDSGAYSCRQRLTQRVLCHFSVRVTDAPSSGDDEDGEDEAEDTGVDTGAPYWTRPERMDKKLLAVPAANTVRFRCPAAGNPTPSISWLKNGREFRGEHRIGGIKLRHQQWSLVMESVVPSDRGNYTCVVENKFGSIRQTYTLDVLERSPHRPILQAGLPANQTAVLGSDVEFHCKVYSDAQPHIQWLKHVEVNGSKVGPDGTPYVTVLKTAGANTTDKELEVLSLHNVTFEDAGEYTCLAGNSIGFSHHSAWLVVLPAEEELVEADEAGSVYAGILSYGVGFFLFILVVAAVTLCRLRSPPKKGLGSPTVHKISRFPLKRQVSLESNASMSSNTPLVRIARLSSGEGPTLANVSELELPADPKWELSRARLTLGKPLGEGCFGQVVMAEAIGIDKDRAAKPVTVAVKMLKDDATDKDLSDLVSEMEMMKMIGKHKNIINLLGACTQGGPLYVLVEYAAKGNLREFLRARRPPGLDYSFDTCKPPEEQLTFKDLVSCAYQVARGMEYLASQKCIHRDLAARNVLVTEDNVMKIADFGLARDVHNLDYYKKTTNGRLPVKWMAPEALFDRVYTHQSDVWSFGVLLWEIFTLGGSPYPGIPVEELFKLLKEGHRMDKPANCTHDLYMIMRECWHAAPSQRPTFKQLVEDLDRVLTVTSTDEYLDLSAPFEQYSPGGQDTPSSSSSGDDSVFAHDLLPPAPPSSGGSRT
# [9] = Mouse plasma stability; format: in vitro ADME; conditions: value ± SE, read-out: Ms Plasma Stability t1/2 (SE)
# [10] = Pharmacokinetics in mice (IP, IV, PO); format: in vivo; conditions: for clearance / half-life / Vd / bioavailability / AUC(0-inf) / AUC(0-t) / Cmax / MRT inf / MRT last / Tmax: in vivo, mouse; for Vd: read-out: Vss
# Procedure: FIG. 2A is the pharmacokinetic data of compound 1 administered by intraperitoneal injection (IP) into mice at 10 mg/kg, according to some embodiments of the present disclosure;
# FIG. 2B is the pharmacokinetic data of compound 1 administered by intravenous injection (IV) into mice at 1 mg/kg and per os (PO) at 5 mg/kg, according to some embodiments of the present disclosure;
# [11] = Pharmacokinetics in mice (IP, IV, PO); conditions: mouse, in vivo, PO 100 mg/kg
# [12] = read-out: FGFR4 inhibition (IC50 class)
# [13] = read-out: FGFR1 Inhibition (IC50 class)
# [14] = read-out: FGFR2 Inhibition (IC50 class)
# [15] = read-out: FGFR3 Inhibition (IC50 class)
# Chain of FGFR4 (P22455 22-802): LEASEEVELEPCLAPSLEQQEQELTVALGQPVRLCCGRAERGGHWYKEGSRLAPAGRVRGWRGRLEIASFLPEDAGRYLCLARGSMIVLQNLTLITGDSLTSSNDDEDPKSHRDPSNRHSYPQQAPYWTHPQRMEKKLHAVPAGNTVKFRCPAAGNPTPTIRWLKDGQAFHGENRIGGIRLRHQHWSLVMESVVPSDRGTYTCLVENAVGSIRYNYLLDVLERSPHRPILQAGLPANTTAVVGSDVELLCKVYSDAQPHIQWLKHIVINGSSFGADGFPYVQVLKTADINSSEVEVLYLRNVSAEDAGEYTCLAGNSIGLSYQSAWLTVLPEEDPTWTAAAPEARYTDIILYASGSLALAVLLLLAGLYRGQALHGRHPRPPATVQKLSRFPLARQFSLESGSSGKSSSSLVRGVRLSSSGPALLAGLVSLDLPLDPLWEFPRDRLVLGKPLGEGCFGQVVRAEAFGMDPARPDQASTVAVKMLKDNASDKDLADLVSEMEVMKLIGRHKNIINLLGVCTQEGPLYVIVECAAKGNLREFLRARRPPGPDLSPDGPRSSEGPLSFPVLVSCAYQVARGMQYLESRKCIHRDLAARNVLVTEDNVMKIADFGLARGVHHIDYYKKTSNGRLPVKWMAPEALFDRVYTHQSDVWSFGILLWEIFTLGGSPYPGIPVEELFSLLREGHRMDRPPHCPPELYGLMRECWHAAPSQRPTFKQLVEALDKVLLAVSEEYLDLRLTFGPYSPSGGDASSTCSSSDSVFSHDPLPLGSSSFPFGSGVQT
smiles,measurement,setting,value
"C=CC(=O)N[C@H]1CCC[C@H]1Nc1cc(-c2cccnc2Nc2c(Cl)c(OC)cc(OC)c2Cl)ncn1 (single isomer, unassigned) [Compound 16, N-[cis-2-[[6-[2-(2,6-dichloro-3,5-dimethoxy-anilino)-3-pyridyl]pyrimidin-4-yl]amino]cyclopentyl]prop-2-enamide]",IC50,[1]; [12],0.1 to 1 µM
C=CC(=O)N[C@H]1COC[C@H]1Nc1cc(-c2cccnc2Nc2c(Cl)c(OC)cc(OC)c2Cl)ncn1 [Compound 1],solubility,[2],much-improved solubility
same,IC50,[3]; [13],≥ 1 µM
same,IC50,[3]; read-out: IC50 towards FGFR1,1.28 µM
same,Papp A→B,[4],25.8 ×10⁻⁶ cm/s
same,fraction unbound,[5],0.08
same,Hepatocyte Clin Ms (SE),[6],43.6 ± 1.3 µL/min/1e6 cells
same,IC50,[7]; [14],≥ 1 µM
same,IC50,[7]; read-out: IC50 towards FGFR2,1.87 µM
same,IC50,[8]; [15],≥ 1 µM
same,IC50,[8]; read-out: IC50 towards FGFR3,4.44 µM
same,half-life,[9],19.1 ± 5.78 h
same,clearance,"[10]; intravenous, Table 2 summary",26.7 mL/min/kg
same,half-life,"[10]; intravenous, Table 2 summary",0.52 h
same,Vd,"[10]; intravenous, Table 2 summary",0.88 L/kg
same,bioavailability,"[10]; oral, Table 2 summary",20.9%
same,AUC(0-inf),"[10]; mice, IP 10 mg/kg",9610 ng·h/mL
same,AUC(0-t),"[10]; mice, IP 10 mg/kg",9610 ng·h/mL
same,Cmax,"[10]; mice, IP 10 mg/kg",14900 ng/mL
same,MRT inf,"[10]; mice, IP 10 mg/kg",0.67 h
same,MRT last,"[10]; mice, IP 10 mg/kg",0.67 h
same,Tmax,"[10]; mice, IP 10 mg/kg",0.25 h
same,half-life,"[10]; mice, IP 10 mg/kg",2.81 h
same,AUC(0-inf),"[10]; mice, IV 1 mg/kg",621 ng·h/mL
same,AUC(0-t),"[10]; mice, IV 1 mg/kg",618 ng·h/mL
same,Cmax,"[10]; mice, IV 1 mg/kg",849 ng/mL
same,MRT inf,"[10]; mice, IV 1 mg/kg",0.537 h
same,MRT last,"[10]; mice, IV 1 mg/kg",0.515 h
same,Tmax,"[10]; mice, IV 1 mg/kg",0.083 h
same,clearance,"[10]; mice, IV 1 mg/kg",27.2 mL/min/kg
same,half-life,"[10]; mice, IV 1 mg/kg",0.522 h
same,Vd,"[10]; mice, IV 1 mg/kg",0.876 L/kg
same,AUC(0-inf),"[10]; mice, PO 5 mg/kg",648 ng·h/mL
same,AUC(0-t),"[10]; mice, PO 5 mg/kg",465 ng·h/mL
same,Cmax,"[10]; mice, PO 5 mg/kg",119 ng/mL
same,MRT inf,"[10]; mice, PO 5 mg/kg",4.02 h
same,MRT last,"[10]; mice, PO 5 mg/kg",3.42 h
same,Tmax,"[10]; mice, PO 5 mg/kg",3.17 h
same,bioavailability,"[10]; mice, PO 5 mg/kg",20.9%
same,half-life,"[10]; mice, PO 5 mg/kg",2.73 h
same,IC50,[1]; [12],0.01 to 0.1 µM
same,IC50,[1]; read-out: IC50 towards FGFR4,0.02 µM
C=CC(=O)NC1CC1Nc1cc(-c2cccnc2Nc2c(Cl)c(OC)cc(OC)c2Cl)ncn1 (centres unmarked) [Compound 2],IC50,[3]; [13],0.01 to 0.1 µM
same,IC50,[7]; [14],0.1 to 1 µM
same,IC50,[8]; [15],0.1 to 1 µM
same,IC50,[1]; [12],≤ 0.01 µM
C=CC(=O)N[C@H]1CC[C@H]1Nc1cc(-c2cccnc2Nc2c(Cl)c(OC)cc(OC)c2Cl)ncn1 [Compound 3],IC50,[1]; [12],0.1 to 1 µM
C=CC(=O)N[C@H]1CCOC[C@H]1Nc1cc(-c2cccnc2Nc2c(Cl)c(OC)cc(OC)c2Cl)ncn1 [Compound 4],IC50,[1]; [12],0.01 to 0.1 µM
"C=CC(=O)Nc1cccc(C)c1Nc1cc(-c2cccnc2Nc2c(Cl)c(OC)cc(OC)c2Cl)ncn1 [Compound 5, N-(2-((6-(2-((2,6-dichloro-3,5-dimethoxyphenyl)amino)pyridin-3-yl)pyrimidin-4-yl)amino)-3-methylphenyl)acrylamide, reference compound]",solubility,[2],poor solubility
same,Papp A→B,[4],11.4 ×10⁻⁶ cm/s
same,AUC(0-t),[11],1450 ng·h/mL
same,Tmax,[11],6.67 h
same,bioavailability,[11],8.09%
same,Hepatocyte Clin Ms (SE),[6],41.7 ± 1.73 µL/min/1e6 cells
same,half-life,[9],3.69 ± 0.928 h
same,clearance,"[10]; intravenous, Table 2 summary",14 mL/min/kg
same,half-life,"[10]; intravenous, Table 2 summary",15 h
same,bioavailability,"[10]; oral, Table 2 summary",8%
same,T1/2,"[10]; mice, IP 10 mg/kg",1.23 h
same,AUC(0-inf),"[10]; mice, IP 10 mg/kg",1280 ng·h/mL
same,AUC(0-t),"[10]; mice, IP 10 mg/kg",1270 ng·h/mL
same,Cmax,"[10]; mice, IP 10 mg/kg",865 ng/mL
same,MRT inf,"[10]; mice, IP 10 mg/kg",1.66 h
same,MRT last,"[10]; mice, IP 10 mg/kg",1.57 h
same,Tmax,"[10]; mice, IP 10 mg/kg",0.25 h
same,AUC(0-inf),"[10]; mice, IV 5 mg/kg",1240 ng·h/mL
same,AUC(0-t),"[10]; mice, IV 5 mg/kg",896 ng·h/mL
same,Cmax,"[10]; mice, IV 5 mg/kg",470 ng/mL
same,MRT inf,"[10]; mice, IV 5 mg/kg",18.5 h
same,MRT last,"[10]; mice, IV 5 mg/kg",7.71 h
same,Tmax,"[10]; mice, IV 5 mg/kg",0.083 h
same,clearance,"[10]; mice, IV 5 mg/kg",13.9 mL/min/kg
same,half-life,"[10]; mice, IV 5 mg/kg",15.1 h
same,Vd,"[10]; mice, IV 5 mg/kg",15.3 L/kg
same,Cmax,"[10]; mice, PO 100 mg/kg",180 ng/mL
same,MRT last,"[10]; mice, PO 100 mg/kg",6.1 h
"C=CC(=O)Nc1cc(OC2CN(C)C2)ccc1Nc1cc(-c2cccnc2Nc2c(Cl)c(OC)cc(OC)c2Cl)ncn1 [Compound 6, N-[2-[[6-[2-(2,6-dichloro-3,5-dimethoxy-anilino)-3-pyridyl]pyrimidin-4-yl]amino]-5-(1-methylazetidin-3-yl)oxy-phenyl]prop-2-enamide]",IC50,[3]; [13],0.1 to 1 µM
same,IC50,[7]; [14],0.1 to 1 µM
same,IC50,[8]; [15],≥ 1 µM
same,IC50,[1]; [12],≤ 0.01 µM
"C=CC(=O)Nc1cc(OCC2CN(C)C2)ccc1Nc1cc(-c2cccnc2Nc2c(Cl)c(OC)cc(OC)c2Cl)ncn1 [Compound 7, N-[2-[[6-[2-(2,6-dichloro-3,5-dimethoxy-anilino)-3-pyridyl]pyrimidin-4-yl]amino]-5-[(1-methylazetidin-3-yl)methoxy]phenyl]prop-2-enamide]",IC50,[3]; [13],0.1 to 1 µM
same,IC50,[7]; [14],0.1 to 1 µM
same,IC50,[8]; [15],≥ 1 µM
same,IC50,[1]; [12],≤ 0.01 µM
"C=CC(=O)Nc1cc(OC2CCN(C)CC2)ccc1Nc1cc(-c2cccnc2Nc2c(Cl)c(OC)cc(OC)c2Cl)ncn1 [Compound 8, N-[2-[[6-[2-(2,6-dichloro-3,5-dimethoxy-anilino)-3-pyridyl]pyrimidin-4-yl]amino]-5-[(1-methyl-4-piperidyl)oxy]phenyl]prop-2-enamide]",IC50,[3]; [13],≥ 1 µM
same,IC50,[7]; [14],0.1 to 1 µM
same,IC50,[8]; [15],≥ 1 µM
same,IC50,[1]; [12],≤ 0.01 µM
"C=CC(=O)Nc1cc(OC2CCN(C)C2)ccc1Nc1cc(-c2cccnc2Nc2c(Cl)c(OC)cc(OC)c2Cl)ncn1 (centres unmarked) [Compound 9, N-[2-[[6-[2-(2,6-dichloro-3,5-dimethoxy-anilino)-3-pyridyl]pyrimidin-4-yl]amino]-5-(1-methylpyrrolidin-3-yl)oxy-phenyl]prop-2-enamide]",IC50,[3]; [13],0.1 to 1 µM
same,IC50,[7]; [14],0.1 to 1 µM
same,IC50,[8]; [15],≥ 1 µM
same,IC50,[1]; [12],≤ 0.01 µM
"C=CC(=O)Nc1cc(OC2CCOC2)ccc1Nc1cc(-c2cccnc2Nc2c(Cl)c(OC)cc(OC)c2Cl)ncn1 (centres unmarked) [Compound 10, N-[2-[[6-[2-(2,6-dichloro-3,5-dimethoxy-anilino)-3-pyridyl]pyrimidin-4-yl]amino]-5-tetrahydrofuran-3-yloxy-phenyl]prop-2-enamide]",IC50,[3]; [13],≥ 1 µM
same,IC50,[7]; [14],≥ 1 µM
same,IC50,[8]; [15],≥ 1 µM
same,IC50,[1]; [12],≤ 0.01 µM
"C=CC(=O)Nc1cc(OC2COC2)ccc1Nc1cc(-c2cccnc2Nc2c(Cl)c(OC)cc(OC)c2Cl)ncn1 [Compound 11, N-[2-[[6-[2-(2,6-dichloro-3,5-dimethoxy-anilino)-3-pyridyl]pyrimidin-4-yl]amino]-5-(oxetan-3-yloxy)phenyl]prop-2-enamide]",IC50,[3]; [13],≥ 1 µM
same,IC50,[7]; [14],≥ 1 µM
same,IC50,[8]; [15],≥ 1 µM
same,IC50,[1]; [12],≤ 0.01 µM
"C=CC(=O)Nc1cc(OCCN2CCCC2)ccc1Nc1cc(-c2cccnc2Nc2c(Cl)c(OC)cc(OC)c2Cl)ncn1 [Compound 12, N-[2-[[6-[2-(2,6-dichloro-3,5-dimethoxy-anilino)-3-pyridyl]pyrimidin-4-yl]amino]-5-(2-pyrrolidin-1-ylethoxy)phenyl]prop-2-enamide]",IC50,[3]; [13],0.1 to 1 µM
same,IC50,[7]; [14],0.1 to 1 µM
same,IC50,[8]; [15],≥ 1 µM
same,IC50,[1]; [12],≤ 0.01 µM
"C=CC(=O)Nc1ncn(C)c1Nc1cc(-c2cccnc2Nc2c(Cl)c(OC)cc(OC)c2Cl)ncn1 [Compound 13, N-[5-[[6-[2-(2,6-dichloro-3,5-dimethoxy-anilino)-3-pyridyl]pyrimidin-4-yl]amino]-1-methyl-imidazol-4-yl]prop-2-enamide]",IC50,[1]; [12],≥ 1 µM
C=CC(=O)Nc1cc(OCCN(C)C)ccc1Nc1cc(-c2cccnc2Nc2c(Cl)c(OC)cc(OC)c2Cl)ncn1 [Compound 14],IC50,[3]; [13],≥ 1 µM
same,IC50,[7]; [14],≥ 1 µM
same,IC50,[8]; [15],≥ 1 µM
same,IC50,[1]; [12],≤ 0.01 µM
C=CC(=O)Nc1cc(OCCN(CC)CC)ccc1Nc1cc(-c2cccnc2Nc2c(Cl)c(OC)cc(OC)c2Cl)ncn1 [Compound 15],IC50,[3]; [13],≥ 1 µM
same,IC50,[7]; [14],≥ 1 µM
same,IC50,[8]; [15],≥ 1 µM
same,IC50,[1]; [12],≤ 0.01 µM
